According to patent US11397178B2, “Method of predicting progression of idiopathic pulmonary fibrosis and monitoring of therapeutic efficacy” (Cedars-Sinai Medical Center, priority 2016, dated 2022):

Assays:
[1] = test system: CCR10+ IPF Cell-Induced Fibrosis in NSG Mice; assay: Humanized NSG mouse model of IPF: BIBF1120 from day 35 (Masson's trichrome, hydroxyproline, flow cytometry); assay type: in vivo; details: for modulation of fibrosis in humanized NSG model of IPF: therapeutic treatment from day 35
Experimental: IPF cells were injected intravenously into NSG mice and beginning at day 35 after injection mice were treated either with a solutol vehicle or 60 mg/kg BIBF-1120 solubilized in solutol for 5 days a week over 4 weeks. (A-C) Depicted are representative images of Masson's Trichrome staining of non-humanized (A) and humanized NSG mice that received solutol (B) or BIBF-1120 (C). (D) Depicted is the hydroxyproline in the lungs of non-humanized or humanized NSG mice that received solutol or BIBF-1120. Data are mean±s.e.m.; n=5-10/group. (E-F) Solutol- or BIBF1120-treated NSG humanized mouse lungs were analyzed by flow cytometry for human CD45, EpCAM and/or CCR10 expression. Depicted is the average number of CD45^+ CCR10^+ (E) and Lin^− CCR10^+ (F) cells in humanized NSG mice treated with solutol or BIBF1120. Data are mean±s.e.m.; n=5-10/group. p values indicated
Six to eight-week old, female, pathogen free NOD Cg-Prkdc^SCID IL2rg^Tm1wil Szi (NSG) or NOD.Cg-Prkdc^SCID IL2rg^tm1Wil Tg(CAG-EGFP) 10sb/SzJ (NSG-GFP) were purchased from Jackson Laboratories and housed in Cedars-Sinai Medical Center's high isolation animal rooms. NSG mice were allowed a minimum of one week to acclimate in the facility and then these mice either received nothing (i.e., non-humanized) 1×10^6 IPF cells by intravenous injection (i.e. humanized). In most in vivo experiments, the IPF cells used were removed from liquid N2 storage, rapidly thawed, and washed in serum-free medium prior to injection into NSG mice. Humanized NSG mice received KB004 (i.e., anti-EphA3 mAb supplied by Kalobios; 5 mg/kg) or KB243 (i.e., appropriate IgG control supplied by Kalobios; 5 mg/kg) either from days 0 to 35 or from days 35 to 63 by intraperitoneal injection twice weekly. […] Other groups of humanized NSG mice received either vehicle (i.e., solutol) or BIBF1120 (Cayman Chemicals) by oral gavage beginning at day 35 after IPF cell injection. Vehicle or drug was administered 5 days a week until day 63 after IPF cell injection. All NSG groups were monitored daily and mice were sacrificed if there is evidence for morbidity such as weight loss of more than 20%, loss of fur, paralysis and/or lack of responsiveness when handled.
Murine lung cellular suspensions were generated using a mouse lung dissociation kit, C-tubes, and a GentleMacs dissociator (Miltenyi Biotech). Spleens were dissociated using a sterile rubber tip of 1 ml syringe plunger and 100 μm 50 ml tube filters (BD bioscience) as follows: isolated spleens were placed in 1 ml of sterile complete medium until all the samples were collected. Sterile 50 ml conical tube filters were placed on top of sterile 50 ml conical tubes and were equilibrated by pipetting 1 ml of calcium and magnesium free DPBS (DBPS; Cellgro) through the filters. Spleens were transferred to a sterile 50 ml filter, cellular suspensions were generated using a sterile rubber tip of a syringe plunger, and splenic material was flushed with 5 ml of DPBS. Lung and splenic cell suspensions were centrifuged and resuspended in 1 ml of RBC lysis buffer (Biolegend), incubated at room temperature for 1-2 min and then equilibrated by adding 25 ml of DPBS to each tube. Cells were centrifuged and resuspended in flow cytometric wash/staining buffer (DPBS+2% FBS) in the presence of human and mouse Fc receptor blocking antibodies (Biolegend). Cells were then stained with anti-human-CD45, -EpCAM and -CCR10 antibodies for 20 min at 4° C. Unstained, isotype controls, fluorescent minus one controls and staining in non-humanized murine lung and spleen suspensions were utilized to gate out any non-specific antibody binding and background fluorescence. CCR10 antibodies were validated via the enrichment for CCR10 transcripts in magnetically sorted CCR10^+ cells versus non-sorted normal and IPF explant cells (FIG. 35). […]

[2] = FDA approved treatment of IPF patients; cited from earlier work
[3] = test system: normal and IPF lung fibroblasts; assay: Soluble collagen 1 ELISA of lung fibroblast conditioned supernatants; assay type: cell-based, human
Experimental: Lung fibroblasts (5000/well) were plated into a 96 well plate and incubated overnight. After incubation, cells were stimulated with 20 ng/ml of IL1β or vehicle in the presence or absence of 20 μg/ml of EphA3-Fc or IgG antibodies (supplied by Kalobios) for 24 and 72 h. After stimulation, conditioned supernatants were collected and the cells were washed and fixed with 4% paraformaldehyde solution in PBS for 10 min at room temperature.
Lung fibroblast conditioned supernatants were diluted 1:5 in DPBS. Purified Collagen 1 (STEMCELL Technologies Inc), diluted in 1:5 DBPS diluted complete medium, was utilized to generate an 8-point collagen 1 standard ranging from 200-0 ng/ml. Fifty microliters of the supernatants and standards were coated onto multisorb 96 well plates (Thermo Fisher Scientific) overnight at 4° C. After coating, the plates were washed and blocked with 200 μl of 3% BSA solution in DPBS (Lonza) for 1 h at room temperature on an orbital shaker. After blocking, plates were washed and 50 μl of 200 ng/ml biotin-conjugated anti collagen-1 antibody (Abcam Ab24821) was added to each well and the plates were incubated for 2 h at room temperature on an orbital shaker. […] Data were acquired by reading the absorbance at 405 nm using a Synergy H1 microplate reader (BioTek Instruments Inc.). […]

[4] = test system: normal and IPF lung fibroblasts; assay: Flow cytometry for cell surface EphA3 expression on stimulated lung fibroblasts; assay type: cell-based, human; details: 20 ng/ml; twenty-four hours after stimulation
Experimental: IPF surgical lung biopsy samples were obtained. IPF lung fibroblasts were generated by mechanically dissociating IPF lung biopsies or explants into sterile tissue culture plates. After mechanical dissociation, tissues were passed through a 25-ml pipette for 10 times, in DMEM (Lonza)+15% FBS (Cell Generation), 100 IU penicillin and 100 μg/ml streptomycin (Mediatech), 292 μg/ml L-Glutamine (Mediatech) and 100 μg/ml of Primocin (Invivogen) (complete medium). Cells were cultured at 37° C. and 10% CO2, medium was changed twice a week by careful removal of the liquid and retaining the minced tissues. This process was repeated for 1-2 weeks, until stromal colonies were apparent, after which fibroblast colonies were trypsinized and passaged. After 4-5 passages, fibroblast purity was confirmed using flow cytometry and/or qPCR analysis for CD45, EpCAM and CD31. Fibroblasts were then cultured in complete medium; fresh medium was added to the fibroblasts every 2-3 days and the cells were passaged when they were 70-90% confluent. […] After treatment, cells were then analyzed by flow cytometry for cell surface EphA3 expression.
Lung fibroblasts were plated and treated as described above. […] Flow cytometric data were acquired using a MACSQuant 10 (Miltenyi Biotech) flow cytometer and data were analyzed using Flowjo software V10.2 (freest& Inc.).

[5] = test system: normal and IPF lung fibroblasts; assay: In cell αSMA ELISA in lung fibroblasts; assay type: cell-based, human; details: CCL28; data not shown
Experimental: Lung fibroblasts (5000/well) were plated into a 96 well plate and incubated overnight. […] After stimulation, conditioned supernatants were collected and the cells were washed and fixed with 4% paraformaldehyde solution in PBS for 10 min at room temperature.
After fixation, cells were washed and permeabilized with 0.5% Triton X-100 in DPBS for 10 min, washed and endogenous peroxidase activity was blocked by adding a solution of 0.3% H2O2 in DPBS to the cells and incubating the cells with the solution for 20 min at room temperature. Cells were then washed and wells were blocked with a 1% BSA solution in DPBS for 30 min at room temperature. After blocking, cells were incubated with 500 ng/ml of anti-czSMA antibodies (Clone 1A4, Abcam) overnight at 4° C. on a rocker. […] The reaction was then stopped by adding 50 μl of 2N sulfuric acid and data were acquired by reading the absorbance at […] using a Synergy H1 microplate reader (BioTek Instruments Inc.). […] Data were acquired by reading the absorbance at 595 nm using a Synergy H1 microplate reader (BioTek Instruments Inc.). Ratios were generated from αSMA/β-tubulin absorbance data and the results were normalized to vehicle. The fold change after 24 and 72 h relative to vehicle was then determined and depicted in the figures.

lung fibroblast = assay: Lung fibroblast invasiveness (not shown); assay type: cell-based, human; details: CCL28; data not shown
[6] = 60 mg/kg from day 35, day 63, flow cytometry

Molecule: COC(=O)c1ccc2c(c1)NC(=O)/C2=C(\Nc1ccc(N(C)C(=O)CN2CCN(C)CC2)cc1)c1ccccc1 [BIBF1120, Nintedanib]
- lung hydroxyproline compared with non-humanized NSG lungs ([1]; 60 mg/kg from day 35, day 63): elevated
- CD45+ CCR10+ cells in NSG lungs compared with vehicle-treated group [1, 6]: greater
- Lin- CCR10+ cells in NSG lungs compared with vehicle-treated group [1, 6]: greater
- lung fibrosis (Masson's trichrome staining) ([1]; 60 mg/kg in solutol from day 35, lungs at day 63 after IPF cell injection): showed lung fibrosis
- modulation of fibrosis in humanized NSG model of IPF [1]: ineffective at modulating fibrosis
- modulation of fibrosis in humanized NSG model of IPF ([1]; listed as nintedanib): did not therapeutically modulate fibrosis
- disease progression in IPF patients [2]: effective at slowing down, but not halting, disease progression

Molecule: Cc1ccc(=O)n(-c2ccccc2)c1 [ESBRIET, Pirfenidone]
- disease progression in IPF patients [2]: effective at slowing down, but not halting, disease progression

Molecule: IL1β: cytokine Interleukin 1 beta used to stimulate lung fibroblasts (R&D systems) [reference compound]
- collagen 1 in normal and IPF lung fibroblasts ([3]; IL1β 20 ng/ml, after 24 and, to a lesser extent, 72 h): induced
- surface EphA3 on normal and IPF lung fibroblasts [4]: significantly unregulated

B1: CCL28: chemokine, CCR10 ligand (protein, UniProt Q9NRJ3 20-127, looked up)
C-C motif chemokine 28: SEAILPIASSCCTEVSHHISRRLLERVNMCRIQRADGDCDLAAVILHVKRRRICVSPHNHTVKQWMKVQAAKKNGKGNVCHRKKHHGKRNSNRAHQGKHETYGHKTPY
- collagen 1 secretion by lung fibroblasts ([3]; CCL28, data not shown): did not consistently modulate
- αSMA protein expression in lung fibroblasts [5]: did not consistently modulate
- lung fibroblast invasiveness (lung fibroblast): did not consistently modulate
